IC50 data for 20 molecules are collected here from patent publication US20260317313A1, “DNA Polymerase Theta Inhibitors Containing Non-Saturated 5-Membered Heterocyclic Rings and Use Thereof” (Thomas Jefferson University, priority 2022, published 2026).

The structures appear in SMILES notation.

The term IC50 denotes the midpoint of a concentration-inhibition curve.

In the first test the target is T1, recombinant human Polq polymerase domain (residues 1792-2590) (Homo sapiens, UniProt O75417).
T1 sequence (O75417 1792-2590): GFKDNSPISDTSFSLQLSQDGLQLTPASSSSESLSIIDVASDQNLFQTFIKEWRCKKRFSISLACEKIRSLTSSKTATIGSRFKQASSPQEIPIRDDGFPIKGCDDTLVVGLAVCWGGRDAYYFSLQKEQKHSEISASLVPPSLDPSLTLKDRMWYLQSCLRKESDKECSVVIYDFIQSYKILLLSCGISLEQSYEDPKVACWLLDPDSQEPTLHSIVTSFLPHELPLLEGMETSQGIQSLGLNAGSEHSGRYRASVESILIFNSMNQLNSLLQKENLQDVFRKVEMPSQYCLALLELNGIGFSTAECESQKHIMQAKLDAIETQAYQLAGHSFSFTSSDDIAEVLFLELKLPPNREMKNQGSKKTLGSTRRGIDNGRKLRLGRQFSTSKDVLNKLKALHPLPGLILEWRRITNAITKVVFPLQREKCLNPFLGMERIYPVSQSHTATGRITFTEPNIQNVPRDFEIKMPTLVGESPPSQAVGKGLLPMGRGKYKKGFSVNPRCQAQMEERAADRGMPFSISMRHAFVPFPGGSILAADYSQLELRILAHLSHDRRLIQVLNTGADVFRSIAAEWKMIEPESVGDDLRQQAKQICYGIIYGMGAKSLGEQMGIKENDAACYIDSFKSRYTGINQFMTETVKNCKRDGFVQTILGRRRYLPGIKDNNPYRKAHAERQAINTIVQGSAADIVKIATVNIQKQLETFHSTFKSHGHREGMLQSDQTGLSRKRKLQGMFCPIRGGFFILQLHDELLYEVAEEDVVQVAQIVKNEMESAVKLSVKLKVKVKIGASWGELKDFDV
Briefly: Cy5 fluorescence assay of Polq polymerase enzymatic activity. The test is classed as biochemical. As to conditions: 5 nM Polq polymerase domain, 60 nM primer-template, 50 uM dNTPs, 37° C., 18 min, 2.5% DMSO, triplicate. On the procedure:
The following Cy5 fluorescence assay was used to measure the ability of compounds to inhibit Polq polymerase domain in vitro. The fluorescent based assay was performed as follows: 60 nM of the pre-annealed primer-template containing a 5′ Cy5 fluorophore conjugated template strand (SEQ ID NO 6: 5′-/5Cy5/ […] GGACAG-3′), a downstream complementary oligo conjugated with a 3′ Blackhole quencher (SEQ ID NO 7: 5′-CTAAGCTCACAGTG/3IAbRQSp/-3′) and a primer strand (SEQ ID NO 8: 5′-CTGTCCTGCATGATG-3′) was mixed with 50 uM 2′-deoxyribonucleoside triphosphates (dNTPs), 0.1 mg/mL Bovine serum albumin (BSA), 0.01% NP-40, 10% glycerol, 1 mM dithiothreitol (DTT), 10 mM MgCl2, 25 mM TrisHCl pH 7.8 in the presence of 2.5% DMSO with or without various concentrations (7-point dilution series) of Polq small molecule inhibitors represented by Formula I at 37° C. in a volume of 40 μL.
`CN(C(=O)Oc1c(-c2cn(CCO)nn2)cc(C(F)(F)F)cc1C(F)(F)F)c1ccc(F)cc1` [Example 1]: the concentration for half-maximal inhibition (IC50) stood at 4.8 nM.

Staying with this test, now noted: 5 nM Polq polymerase domain, 60 nM primer-template, 50 uM dNTPs, 37° C., 18 min, 2.5% DMSO, triplicate; read-out: Polq IC50.
Turning to `[2H]C([2H])([2H])N(C(=O)Cc1c(-c2cnn(C(=O)OC(C)(C)C)c2)cc(C(F)(F)F)cc1C(F)(F)F)c1ccc(F)cc1` [Example 22, Tert-butyl 4-(2-{[(4-fluorophenyl)(methyl-d3)carbamoyl]methyl}-3,5-bis(trifluoromethyl)phenyl)-1H-pyrazole-1-carboxylate], the IC50 turned out to be 24.5 nM.

Turning to `CC(C)(C)OC(=O)n1ccn(-c2cc(C(F)(F)F)cc(C(F)(F)F)c2OC(=O)N(CC#N)c2ccc(F)cc2)c1=O` [Example 19, tert-butyl 3-(2-{[(cyanomethyl)(4-fluorophenyl)carbamoyl]oxy}-3,5-bis(trifluoromethyl)phenyl)-2-oxo-2,3-dihydro-1H-imidazole-1-carboxylate], the IC50 was determined as 295 nM.

Staying with this test, now noted: Polq IC50, 5 nM Polq polymerase domain, 60 nM primer-template, 50 uM dNTPs, 37° C., 18 min, 2.5% DMSO, triplicate.
Regarding `Cc1ncsc1-c1ccc(CNC(=O)[C@@H]2C[C@@H](O)CN2C(=O)[C@@H](NC(=O)CCOCCOCCn2cc(-c3cc(C(F)(F)F)cc(C(F)(F)F)c3OC(=O)N(C)c3ccc(F)cc3)nn2)C(C)(C)C)cc1` [Example 37, 2-(1-(2-(2-(3-(((S)-1-((2S,4R)-4-hydroxy-2-((4-(4-methylthiazol-5-yl)benzyl)carbamoyl)pyrrolidin-1-yl)-3,3-dimethyl-1-oxobutan-2-yl)amino)-3-oxopropoxy)ethoxy)ethyl)-1H-1,2,3-triazol-4-yl)-4,6-bis(trifluoromethyl)phenyl (4-fluorophenyl)(methyl)carbamate], the IC50 was 4.6 nM. Take `CN(C(=O)Oc1c(-c2cn(CCOCCOCCC(=O)O)nn2)cc(C(F)(F)F)cc1C(F)(F)F)c1ccc(F)cc1` [Example 36, 3-(2-(2-(4-(2-(((4-fluorophenyl)(methyl)carbamoyl)oxy)-3,5-bis(trifluoromethyl)phenyl)-1H-1,2,3-triazol-1-yl)ethoxy)ethoxy)propanoic Acid]: the half-inhibitory concentration (IC50) turned out to be 3 nM.

Turning to `CN(C(=O)Oc1c(-c2cn(CCOCCOCC(=O)Nc3cccc4c3C(=O)N(C3CCC(=O)NC3=O)C4=O)nn2)cc(C(F)(F)F)cc1C(F)(F)F)c1ccc(F)cc1` (centres unmarked) [Example 6, 2-(1-(2-(2-(2-((2-(2,6-dioxopiperidin-3-yl)-1,3-dioxoisoindolin-4-yl)amino)-2-oxoethoxy)ethoxy)ethyl)-1H-1,2,3-triazol-4-yl)-4,6-bis(trifluoromethyl)phenyl (4-fluorophenyl)(methyl)carbamate], the IC50 was determined as 4 nM.

On to `[2H]C([2H])([2H])N(C(=O)Oc1c(-c2cn(C3C[C@@H](O)[C@@H](O)C3)nn2)cc(C(F)(F)F)cc1C(F)(F)F)c1ccc(F)cc1` (mixture of isomers) [Example 13, 2-{1-[(3R,4S)-3,4-dihydroxycyclopentyl]-1H-1,2,3-triazol-4-yl}-4,6-bis(trifluoromethyl)phenyl N-(4-fluorophenyl)-(methyl-d3)carbamate (Racemate)], for which the half-inhibitory concentration (IC50) is 4.6 nM.

Take `CN(C(=O)Oc1c(-c2cn(C3CC(O)C3)nn2)cc(C(F)(F)F)cc1C(F)(F)F)c1ccc(F)cc1` (centres unmarked) [Example 11, 2-[1-(3-hydroxycyclobutyl)-1H-1,2,3-triazol-4-yl]-4,6-bis(trifluoromethyl)phenyl N-(4-fluorophenyl)-N-methylcarbamate]: the half-inhibitory concentration (IC50) stood at 2 nM. On the same count and under the same terms, as for `CN(C(=O)Oc1c(-n2cc[nH]c2=O)cc(C(F)(F)F)cc1C(F)(F)F)c1ccc(F)cc1` [Example 2, 2-(2-oxo-2,3-dihydro-1H-imidazol-1-yl)-4,6-bis(trifluoromethyl)phenyl N-(4-fluorophenyl)-N-methylcarbamate], the figure is 4 nM; as for `[2H]C([2H])([2H])N(C(=O)Oc1c(-n2cncn2)cc(C(F)(F)F)cc1C(F)(F)F)c1ccc(F)cc1` [Example 32, 2-(1H-1,2,4-triazol-1-yl)-4,6-bis(trifluoromethyl)phenyl N-(4-fluorophenyl)-N-(methyl-d3)carbamate], 18 nM.

For the molecule `[2H]C([2H])([2H])N(C(=O)Oc1c(-n2cn[nH]c2=O)cc(C(F)(F)F)cc1C(F)(F)F)c1ccc(F)cc1` [Example 34, 2-(5-oxo-4,5-dihydro-1H-1,2,4-triazol-4-yl)-4,6-bis(trifluoromethyl)phenyl N-(4-fluorophenyl)-N-(methyl-d3)carbamate], the IC50 came out at 51 nM. On the same count and under the same terms, as for `[2H]C([2H])([2H])N(C(=O)Oc1c(-c2cn(CC3(O)CNC3)nn2)cc(C(F)(F)F)cc1C(F)(F)F)c1ccc(F)cc1` [Example 15, 2-{1-[(3-hydroxyazetidin-3-yl)methyl]-1H-1,2,3-triazol-4-yl}-4,6-bis(trifluoromethyl)phenyl N-(4-fluorophenyl)-N-(methyl-d3)carbamate], the figure is 1.9 nM; as for `CN(C(=O)Oc1c(-c2cn(CCCCCC(=O)Nc3cccc4c3C(=O)N(C3CCC(=O)NC3=O)C4=O)nn2)cc(C(F)(F)F)cc1C(F)(F)F)c1ccc(F)cc1` (centres unmarked) [Example 4, 2-(1-(6-((2-(2,6-dioxopiperidin-3-yl)-1,3-dioxoisoindolin-4-yl)amino)-6-oxohexyl)-1H-1,2,3-triazol-4-yl)-4,6-bis(trifluoromethyl)phenyl (4-fluorophenyl) (methyl)carbamate], 5.5 nM; as for `CN(C(=O)Oc1c(-c2cn(CCOCC(=O)Nc3cccc4c3C(=O)N(C3CCC(=O)NC3=O)C4=O)nn2)cc(C(F)(F)F)cc1C(F)(F)F)c1ccc(F)cc1` (centres unmarked) [Example 5, 2-(1-(2-(2-((2-(2,6-dioxopiperidin-3-yl)-1,3-dioxoisoindolin-4-yl)amino)-2-oxoethoxy)ethyl)-1H-1,2,3-triazol-4-yl)-4,6-bis(trifluoromethyl)phenyl (4-fluorophenyl) (methyl)carbamate], 4.6 nM. As to `[2H]C([2H])([2H])N(C(=O)Oc1c(-n2cnn(CC(O)CNC)c2=O)cc(C(F)(F)F)cc1C(F)(F)F)c1ccc(F)cc1` (centres unmarked) [Example 35, 2-{1-[2-hydroxy-3-(methylamino)propyl]-5-oxo-4,5-dihydro-1H-1,2,4-triazol-4-yl}-4,6-bis(trifluoromethyl)phenyl N-(4-fluorophenyl)-N-(methyl-d3)carbamate], the concentration for half-maximal inhibition (IC50) came to 104 nM. Same read-out and setting: for `CN(C(=O)Oc1c(-c2cn(CC3(O)CNC3)nn2)cc(C(F)(F)F)cc1C(F)(F)F)c1ccc(F)cc1` [Example 14, 2-{1-[(3-hydroxyazetidin-3-yl)methyl]-1H-1,2,3-triazol-4-yl}-4,6-bis(trifluoromethyl)phenyl N-(4-fluorophenyl)-N-methylcarbamate] the value was 2.3 nM; for `[2H]C([2H])([2H])N(C(=O)Oc1c(-c2nnn[nH]2)cc(C(F)(F)F)cc1C(F)(F)F)c1ccc(F)cc1` [Example 21, 2-(1H-1,2,3,4-tetrazol-5-yl)-4,6-bis(trifluoromethyl)phenyl N-(4-fluorophenyl)-N-(methyl-d3)carbamate], 3.2 nM. The same measure, in the same setting: as for `[2H]C([2H])([2H])N(C(=O)Oc1c(-c2cn(C3CN(S(C)(=O)=O)C3)nn2)cc(C(F)(F)F)cc1C(F)(F)F)c1ccc(F)c(Cl)c1F` [Example 28, 2-[1-(1-methanesulfonylazetidin-3-yl)-1H-1,2,3-triazol-4-yl]-4,6-bis(trifluoromethyl)phenyl N-(3-chloro-2,4-difluorophenyl)-N-(methyl-d3)carbamate], the figure is 3.2 nM; as for `[2H]C([2H])([2H])N(C(=O)Oc1c(-c2cnn(CC(O)CN(C)C)c2)cc(C(F)(F)F)cc1C(F)(F)F)c1ccc(F)cc1` (centres unmarked) [Example 25, 2-{1-[3-(dimethylamino)-2-hydroxypropyl]-1H-pyrazol-4-yl}-4,6-bis(trifluoromethyl)phenyl N-(4-fluorophenyl)-N-(methyl-d3)carbamate], 24 nM; as for `[2H]C([2H])([2H])N(C(=O)Oc1c(-c2cn(C3CS(=O)(=O)CC3O)nn2)cc(C(F)(F)F)cc1C(F)(F)F)c1ccc(F)c(Cl)c1F` (centres unmarked) [Example 24, 2-[1-(4-hydroxy-1,1-dioxo-1λ^6-thiolan-3-yl)-1H-1,2,3-triazol-4-yl]-4,6-bis(trifluoromethyl)phenyl N-(3-chloro-2,4-difluorophenyl)-N-(methyl-d3)carbamate], 13.6 nM.
